Test results reported in patent US20260272797A1, “FRAGRANCE COMPOSITION” (GIVAUDAN SA, priority 2023, published 2026).

Assay: Gas-phase evaluation of each fragrance ingredient alone against model scalp malodour, MiniVAS device, panel of 5 experts
Details: Table 3, air flow 50 ml/min, scale of 1-5 (1=barely noticeable, 5=very strong)
Experimental: In a first set of experiments, the scalp malodour counteractancy of 173 fragrance ingredients was evaluated by panel of 5 experts.
The evaluation was performed in the gas phase, using a MiniVAS™ device (ex Givaudan SA). This device is a regulating means that comprises a plurality of channels adapted to convey a gas (more particularly air) through cartridges, each cartridge containing a fragrance ingredient adsorbed onto an adsorbent. The air flows coming from the different cartridges are admixed and conveyed to the user's nose through a tubing fitted with an olfactometer funnel. Thus, by opening and closing channels and maintaining these opened and closed, respectively, for predetermined times, the regulating means can determine which fragrance ingredients and how much thereof are conveyed and when, and thus alter the nature of the fragrance perceived by the user. A description of the device can be found in WO2014154909A1, page 2, line 11 to page 4, line 7, and in H. R. Gygax et al. “Evolution of Real Time Aroma Creation at Givaudan”, poster presented at the 12th Weurman Flavour Research Symposium. July 2008. Interlaken, Switzerland; DOI: 10.13140/2.1.1924.0641.
For the sake of the present evaluation, one cartridge contained the scalp malodour (in the form of a model malodour) and each fragrance ingredient was assigned to another cartridge. The malodour counteractancy of each fragrance ingredient was evaluated separately against the scalp malodour. A constant air flow rate of 50 ml/min was used for all measurements. The perceived malodour intensity, as well as the fragrance intensity, were ranked on a scale of 1-5 (1=barely noticeable, 2=weak, 3=medium, 4=strong and 5=very strong).

Row | Structure (SMILES) | MO intensity
1 | CC(=O)C(C)O (stereo not shown) [3-hydroxybutan-2-one] | 4
2 | CC(CCO)CCc1ccccc1 (stereo not shown) [3-methyl-5-phenylpentan-1-ol] | 2
3 | CC1COCc2cc3c(cc21)C(C)(C)C(C)C3(C)C (stereo not shown) [4,6,6,7,8,8-hexamethyl-1,3,4,6,7,8-hexahydrocyclopenta[g]isochromene] | 3
4 | C=CCc1ccc(O)c(OC)c1 [4-allyl-2-methoxyphenol] | 4
5 | COc1cc(C=O)ccc1OC(=O)C(C)C [4-formyl-2-methoxyphenyl 2-methylpropanoate] | 1.5
6 | COc1ccc(C=O)cc1 [4-methoxybenzaldehyde] | 3
7 | CCCCCCC1CCC(=O)O1 (stereo not shown) [5-hexyloxolan-2-one] | 3
8 | CCCC1(C(C)(C)C)C=CC(C)O1 (stereo not shown) [5-tert-butyl-2-methyl-5-propyl-2H-furan] | 4
9 | CCCCCCCC1CCCC(=O)O1 (stereo not shown) [6-heptyltetrahydro-2H-pyran-2-one] | 3
10 | CCC(C)(CCCC(C)C=O)OC (stereo not shown) [6-methoxy-2,6-dimethyloctanal] | 3
11 | CC(CC=O)CCCC(C)(C)O (stereo not shown) [7-hydroxy-3,7-dimethyloctanal] | 2
12 | CC(C)CCc1ccc2c(c1)OCC(=O)CO2 [7-isopentyl-2H-benzo[b][1,4]dioxepin-3(4H)-one] | 4.5
13 | Cc1ccc2c(c1)OCC(=O)CO2 [8-methyl-1,5-benzodioxepin-3-one] | 3.5
14 | CC1CCC2(CCC(=O)O2)CC1 (stereo not shown) [8-methyl-1-oxaspiro[4.5]decan-2-one] | 2.7
15 | CC1(C)[C@H]2CC[C@]1(C)C(=O)C2 [(1S,4S)-1,7,7-trimethylbicyclo[2.2.1]heptan-2-one] | 4.5
16 | CC(=O)O[C@]1(C)CC[C@]23CC1C(C)(C)C2CC[C@@H]3C (stereo partly drawn) [(1S,6R,8aR)-1,4,4,6-tetramethyloctahydro-1H-5,8a-methanoazulen-6-yl acetate] | 1
17 | C/C=C/C(=O)/C(C)=C(\C)C(C)C [(2E,5E)-5,6,7-trimethylocta-2,5-dien-4-one] | 1.5
18 | CC1=CC[C@H]2C(C1)C1CC2[C@@]2(C1)OC2C (stereo partly drawn) [(2R,8aS)-3′,6-dimethyl-3,4,4a,5,8,8a-hexahydro-1H-spiro[1,4-methanonaphthalene-2,2′-oxirane]] | 1
19 | CC1(C)CCC[C@]2(C)[C@H]3CCO[C@]3(C)CC[C@@H]12 [(3aR,5aS,9aS,9bR)-3a,6,6,9a-tetramethyl-2,4,5,5a,7,8,9,9b-octahydro-1H-benzo[e][1]benzofuran] | 1
20 | CC(C)C1CCC(CO)CC1 (stereo not shown) [(4-isopropylcyclohexyl)methanol] | 3
21 | CC(C)c1ccc(CO)cc1 [(4-isopropylphenyl)methanol] | 2
22 | C/C(=C\CCC=O)CCCC(C)(C)O [(4E)-9-hydroxy-5,9-dimethyl-4-decenal] | 1
23 | C[C@@H]1CC[C@H]2C(C)(C)[C@H]3C[C@@]12CC1OC(C)(C)OC13C (stereo partly drawn) [(4aR,5R,7aS,9R)-Octahydro-2,2,5,8,8,9a-hexamethyl-4H-4a,9-methanoazuleno[5,6-d]-1,3-dioxole] | 4

Same assay, conditions: Table 3, gas phase, expert description

Row | Structure (SMILES) | Scalp MOC of ingredient alone
24 | CC(=O)O[C@]1(C)CC[C@]23CC1C(C)(C)C2CC[C@@H]3C (stereo partly drawn) [(1S,6R,8aR)-1,4,4,6-tetramethyloctahydro-1H-5,8a-methanoazulen-6-yl acetate] | No effect
25 | CC1=CC[C@H]2C(C1)C1CC2[C@@]2(C1)OC2C (stereo partly drawn) [(2R,8aS)-3′,6-dimethyl-3,4,4a,5,8,8a-hexahydro-1H-spiro[1,4-methanonaphthalene-2,2′-oxirane]] | No effect
26 | CC1(C)CCC[C@]2(C)[C@H]3CCO[C@]3(C)CC[C@@H]12 [(3aR,5aS,9aS,9bR)-3a,6,6,9a-tetramethyl-2,4,5,5a,7,8,9,9b-octahydro-1H-benzo[e][1]benzofuran] | No effect
27 | C/C(=C\CCC=O)CCCC(C)(C)O [(4E)-9-hydroxy-5,9-dimethyl-4-decenal] | No effect

Same assay, conditions: Table 4, air flow 50 ml/min, scale of 1-5

Row | Structure (SMILES) | MO intensity
28 | CCC(=O)C(C)CC=C(C)C (stereo not shown) [4,7-dimethyloct-6-en-3-one] | 4
29 | CC(=O)CCC1=C(C)CCCC1(C)C [4-(2,6,6-trimethylcyclohex-1-en-1-yl)butan-2-one] | 1
30 | CC(C)=CCCC1=CCC(C=O)CC1 (stereo not shown) [4-(4-methylpent-3-en-1-yl)cyclohex-3-enecarbaldehyde] | 1
31 | C=CCc1ccc(OC(C)=O)c(OC)c1 [4-allyl-2-methoxyphenyl acetate] | 1
32 | CCCCC1CCC(=O)O1 (stereo not shown) [5-butyloxolan-2-one] | 3.8
33 | CCCC1CCCC(=O)O1 (stereo not shown) [6-propyltetrahydro-2H-pyran-2-one] | 3.8
34 | OCC1COC(Cc2ccccc2)O1 (stereo not shown) [(2-benzyl-1,3-dioxolan-4-yl)methanol] | 1
35 | CCCCC/C=C\C=C\C(=O)OCC [(2E,4Z)-ethyl deca-2,4-dienoate] | 1
36 | CC(=O)O[C@H]1CC2CC1[C@H]1CC=C[C@@H]21 (stereo partly drawn) [(3aR,6S,7aS)-3a,4,5,6,7,7a-hexahydro-1H-4,7-methanoinden-6-yl acetate] | 3.8
37 | CCC(=O)O[C@H]1CC2CC1[C@H]1CC=C[C@@H]21 (stereo partly drawn) [(3aR,6S,7aS)-3a,4,5,6,7,7a-hexahydro-1H-4,7-methanoinden-6-yl propanoate] | 1.3

Assay: Impact of fragrance ingredients on scalp malodour counteractancy of 80 fragrance compositions (Example 2 protocol, statistical presence)
Details: Table 3; series of 80 fragrance compositions
Experimental: In a second set of experiments, the impact of these fragrance ingredients on the scalp malodour counteractancy of a fragrance composition was assessed. The scalp malodour counteractancy of a series of 80 fragrance compositions was assessed by performing the evaluation protocol described in Example 2. […] Ingredients that were statistically more present in fragrances having a high malodour counteractancy were assigned a positive status, whereas ingredients that were statistically more present in compositions having a low malodour counteractancy were assigned a negative status.

Row | Structure (SMILES) | Impact on scalp MOC of fragrance composition
38 | CC(=O)C(C)O (stereo not shown) [3-hydroxybutan-2-one] | Positive
39 | CC(CCO)CCc1ccccc1 (stereo not shown) [3-methyl-5-phenylpentan-1-ol] | Positive
40 | CC1COCc2cc3c(cc21)C(C)(C)C(C)C3(C)C (stereo not shown) [4,6,6,7,8,8-hexamethyl-1,3,4,6,7,8-hexahydrocyclopenta[g]isochromene] | Positive
41 | C=CCc1ccc(O)c(OC)c1 [4-allyl-2-methoxyphenol] | Positive
42 | COc1cc(C=O)ccc1OC(=O)C(C)C [4-formyl-2-methoxyphenyl 2-methylpropanoate] | Positive
43 | COc1ccc(C=O)cc1 [4-methoxybenzaldehyde] | Positive
44 | CCCCCCC1CCC(=O)O1 (stereo not shown) [5-hexyloxolan-2-one] | Positive
45 | CCCC1(C(C)(C)C)C=CC(C)O1 (stereo not shown) [5-tert-butyl-2-methyl-5-propyl-2H-furan] | Positive
46 | CCCCCCCC1CCCC(=O)O1 (stereo not shown) [6-heptyltetrahydro-2H-pyran-2-one] | Positive
47 | CCC(C)(CCCC(C)C=O)OC (stereo not shown) [6-methoxy-2,6-dimethyloctanal] | Positive
48 | CC(CC=O)CCCC(C)(C)O (stereo not shown) [7-hydroxy-3,7-dimethyloctanal] | Positive
49 | CC(C)CCc1ccc2c(c1)OCC(=O)CO2 [7-isopentyl-2H-benzo[b][1,4]dioxepin-3(4H)-one] | Positive
50 | Cc1ccc2c(c1)OCC(=O)CO2 [8-methyl-1,5-benzodioxepin-3-one] | Positive
51 | CC1CCC2(CCC(=O)O2)CC1 (stereo not shown) [8-methyl-1-oxaspiro[4.5]decan-2-one] | Positive
52 | CC1(C)[C@H]2CC[C@]1(C)C(=O)C2 [(1S,4S)-1,7,7-trimethylbicyclo[2.2.1]heptan-2-one] | Positive
53 | CC(=O)O[C@]1(C)CC[C@]23CC1C(C)(C)C2CC[C@@H]3C (stereo partly drawn) [(1S,6R,8aR)-1,4,4,6-tetramethyloctahydro-1H-5,8a-methanoazulen-6-yl acetate] | Positive
54 | C/C=C/C(=O)/C(C)=C(\C)C(C)C [(2E,5E)-5,6,7-trimethylocta-2,5-dien-4-one] | Positive
55 | CC1=CC[C@H]2C(C1)C1CC2[C@@]2(C1)OC2C (stereo partly drawn) [(2R,8aS)-3′,6-dimethyl-3,4,4a,5,8,8a-hexahydro-1H-spiro[1,4-methanonaphthalene-2,2′-oxirane]] | Positive
56 | CC1(C)CCC[C@]2(C)[C@H]3CCO[C@]3(C)CC[C@@H]12 [(3aR,5aS,9aS,9bR)-3a,6,6,9a-tetramethyl-2,4,5,5a,7,8,9,9b-octahydro-1H-benzo[e][1]benzofuran] | Positive
57 | CC(C)C1CCC(CO)CC1 (stereo not shown) [(4-isopropylcyclohexyl)methanol] | Positive
58 | CC(C)c1ccc(CO)cc1 [(4-isopropylphenyl)methanol] | Positive
59 | C/C(=C\CCC=O)CCCC(C)(C)O [(4E)-9-hydroxy-5,9-dimethyl-4-decenal] | Positive
60 | C[C@@H]1CC[C@H]2C(C)(C)[C@H]3C[C@@]12CC1OC(C)(C)OC13C (stereo partly drawn) [(4aR,5R,7aS,9R)-Octahydro-2,2,5,8,8,9a-hexamethyl-4H-4a,9-methanoazuleno[5,6-d]-1,3-dioxole] | Positive

Same assay, conditions: Table 4; series of 80 fragrance compositions

Row | Structure (SMILES) | Impact on scalp MOC of fragrance composition
61 | CCC(=O)C(C)CC=C(C)C (stereo not shown) [4,7-dimethyloct-6-en-3-one] | Negative
62 | CC(=O)CCC1=C(C)CCCC1(C)C [4-(2,6,6-trimethylcyclohex-1-en-1-yl)butan-2-one] | Negative
63 | CC(C)=CCCC1=CCC(C=O)CC1 (stereo not shown) [4-(4-methylpent-3-en-1-yl)cyclohex-3-enecarbaldehyde] | Negative
64 | C=CCc1ccc(OC(C)=O)c(OC)c1 [4-allyl-2-methoxyphenyl acetate] | Negative
65 | CCCCC1CCC(=O)O1 (stereo not shown) [5-butyloxolan-2-one] | Negative
66 | CCCC1CCCC(=O)O1 (stereo not shown) [6-propyltetrahydro-2H-pyran-2-one] | Negative
67 | OCC1COC(Cc2ccccc2)O1 (stereo not shown) [(2-benzyl-1,3-dioxolan-4-yl)methanol] | Negative
68 | CCCCC/C=C\C=C\C(=O)OCC [(2E,4Z)-ethyl deca-2,4-dienoate] | Negative
69 | CC(=O)O[C@H]1CC2CC1[C@H]1CC=C[C@@H]21 (stereo partly drawn) [(3aR,6S,7aS)-3a,4,5,6,7,7a-hexahydro-1H-4,7-methanoinden-6-yl acetate] | Negative
70 | CCC(=O)O[C@H]1CC2CC1[C@H]1CC=C[C@@H]21 (stereo partly drawn) [(3aR,6S,7aS)-3a,4,5,6,7,7a-hexahydro-1H-4,7-methanoinden-6-yl propanoate] | Negative
